Results as given in ChEMBL document CHEMBL1201862, “PubChem BioAssay data set” (2004).
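Test compounds were applied to cells in 96-well plates for 48 hours at 5 doses. The concentration for 50% growth inhibition is given as GI50.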 Activity calls are given as the source filed them. Cut-off read from the data, not from the text of the source: active = GI50 up to about 1.1 µM and inactive = higher. Non-standard residues stand in square brackets, D forms with d. Residues, ends and D or L forms follow the SMILES beside them.

Key:
Assay in all cases: NCI tumour cell line growth inhibition, 48 h
A498 = test system: A498
COLO 205 = test system: COLO 205
DU-145 = test system: DU-145
HL-60 = test system: HL-60
HT-29 = test system: HT-29
IGROV-1 = test system: IGROV-1
K562 = test system: K562
LOX IMVI = test system: LOX IMVI
M14 = test system: M14
MOLT-4 = test system: MOLT-4
Malme-3M = test system: Malme-3M
OVCAR-3 = test system: OVCAR-3
OVCAR-8 = test system: OVCAR-8
SF-268 = test system: SF-268
SF-539 = test system: SF-539
SN12C = test system: SN12C
SNB-19 = test system: SNB-19
SW-620 = test system: SW-620
TK-10 = test system: TK-10
SR = test system: SR

Measured: GI50

Cn1c(N)c(/C=C/C(=O)Oc2ccccc2)c(=O)n(C)c1=O
inactive: A498 > 100 µM | COLO 205 > 100 µM | DU-145 99.8 µM | HL-60 > 100 µM | HT-29 > 100 µM | IGROV-1 67.9 µM | K562 > 100 µM | LOX IMVI > 100 µM | M14 > 100 µM | MOLT-4 > 100 µM | Malme-3M > 100 µM | OVCAR-3 > 100 µM | OVCAR-8 30.6 µM | SF-268 31.7 µM | SF-539 50.8 µM | SN12C 45.6 µM | SNB-19 59.3 µM | SW-620 > 100 µM | TK-10 > 100 µM

CCN(CC)CCOCCn1c2c(c3ccccc31)CCCC2
inactive: COLO 205 17.7 µM | DU-145 30.9 µM | HL-60 9.73 µM | HT-29 23.7 µM | IGROV-1 18.9 µM | K562 13.6 µM | LOX IMVI 19.5 µM | M14 16.9 µM | MOLT-4 15.8 µM | Malme-3M 15.6 µM | OVCAR-3 35.5 µM | OVCAR-8 33.7 µM | SF-268 36.1 µM | SF-539 16.6 µM | SN12C 18.3 µM | SR 16.3 µM | SW-620 17.1 µM | TK-10 19.1 µM

CSCC[C@H](NC(=O)[C@@H](N)CC(N)=O)C(=O)N[C@@H](Cc1c[nH]c2ccccc12)C(=O)N[C@@H](CCC(N)=O)C(=O)N[C@@H](CCC(=O)O)C(=O)N[C@H](C(=O)NCC(=O)N[C@@H](CCCCN)C(=O)N[C@H](C)C(=O)O)C(C)C (H-NMWQEVGK[dA]-OH)
inactive: A498 > 100 µM | COLO 205 > 100 µM | DU-145 > 100 µM | HL-60 > 100 µM | HT-29 > 100 µM | IGROV-1 > 100 µM | K562 > 100 µM | LOX IMVI > 100 µM | M14 > 100 µM | MOLT-4 > 100 µM | Malme-3M > 100 µM | OVCAR-3 > 100 µM | OVCAR-8 > 100 µM | SF-268 > 100 µM | SF-539 > 100 µM | SN12C > 100 µM | SNB-19 > 100 µM | SW-620 > 100 µM | TK-10 > 100 µM

O=C(O)CC[N+]1=CCC(c2ccccc2)(c2ccccc2)O1
inactive: A498 > 100 µM | COLO 205 > 100 µM | DU-145 > 100 µM | HT-29 > 100 µM | IGROV-1 > 100 µM | K562 > 100 µM | M14 > 100 µM | MOLT-4 > 100 µM | OVCAR-3 > 100 µM | OVCAR-8 > 100 µM | SF-268 > 100 µM | SF-539 > 100 µM | SN12C > 100 µM | SNB-19 > 100 µM | SW-620 > 100 µM | TK-10 > 100 µM

O=C(CNc1ccc(Cl)cc1Cl)NC1C=Cc2ccc(S(=O)(=O)Nc3ccc(Cl)cc3Cl)cc2C1=O (stereo unspecified)
inactive: COLO 205 > 100 µM | DU-145 > 100 µM | HL-60 > 100 µM | HT-29 > 100 µM | IGROV-1 > 100 µM | K562 > 100 µM | LOX IMVI > 100 µM | M14 > 100 µM | MOLT-4 > 100 µM | Malme-3M > 100 µM | OVCAR-3 > 100 µM | OVCAR-8 > 100 µM | SF-268 > 100 µM | SF-539 > 100 µM | SN12C > 100 µM | SNB-19 > 100 µM | SR > 100 µM | SW-620 > 100 µM | TK-10 > 100 µM
